We go through eight molecules from US8815841B2, “1,4-Oxazepines as BACE1 and/or BACE2 inhibitors” (Hoffmann-La Roche Inc., priority 2011, dated 2014).

Test [1] concerns the target T1, endogenous cellular BACE2 (human TMEM27 cleavage) in the Ins 1e rat cell line (Rattus norvegicus, UniProt Q6IE75).
T1 construct: endogenous cellular BACE2 in the Ins 1e rat cell line; endogenous in cells; host or cells: INS-TMEM27 (INS1e-derived rat cell line with doxycycline-inducible full-length human TMEM27)
T1 sequence (Q6IE75 63-514): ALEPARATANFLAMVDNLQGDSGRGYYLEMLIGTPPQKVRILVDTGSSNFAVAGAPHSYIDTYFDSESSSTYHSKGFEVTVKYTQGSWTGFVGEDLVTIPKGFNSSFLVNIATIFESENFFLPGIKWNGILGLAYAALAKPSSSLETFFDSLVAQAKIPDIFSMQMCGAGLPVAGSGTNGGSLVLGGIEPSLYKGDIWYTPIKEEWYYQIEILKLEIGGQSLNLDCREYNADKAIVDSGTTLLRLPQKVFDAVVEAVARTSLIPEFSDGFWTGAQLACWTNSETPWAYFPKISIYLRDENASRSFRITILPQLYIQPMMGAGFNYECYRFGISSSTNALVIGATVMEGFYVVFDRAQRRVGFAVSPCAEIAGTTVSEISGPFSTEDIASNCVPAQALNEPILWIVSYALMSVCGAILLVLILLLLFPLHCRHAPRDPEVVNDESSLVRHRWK
Briefly: Assay for BACE inhibition by measuring cellular TMEM27 cleavage. The class given is cell-based. The settings on record: INS-TMEM27 cells, shed TMEM27 in culture medium by ELISA. The source says: Assay for BACE Inhibition by Measuring Cellular TMEM27 Cleavage:
The assay uses the principle of inhibition of human TMEM27 cleavage by endogenous cellular BACE2 in the Ins 1e rat cell line and shedding from the cell surface into the culture medium, followed by detection in an ELISA assay. Inhibition of BACE2 prevents the cleavage and shedding in a dose-dependent manner.
The stable cell line “INS-TMEM27” represents an INSle-derived cell line with inducible expression (using the TetOn system) of full-length hTMEM27 in a doxycycline-dependent manner. The cells are cultured throughout the experiment in RPMI1640+Glutamax (Invitrogen) Penicillin/Streptomycin, 10% Fetal bovine serum, […], […], 100 micrograms/ml G418 and 100 microgram/ml hygromycin and are grown inadherent culture at 37° C. in a standard CO2 cell culture incubator.
INS-TMEM27 cells are seeded in 96-well plates. After 2 days in culture, BACE2 inhibitor is added in a range of concentrations as required by the assay and after a further two hours, doxycycline is added to a final concentration of 500 ng/ml. The cells are incubated for a further 46 hours and the supernatant harvested for detection of shed TMEM27.
An ELISA assay (using a pair of mouse anti-human-TMEM27 antibodies, raised against the extracellular domain of TMEM27) is used for detection of TMEM27 in the culture medium. An EC50 for BACE2 inhibition is calculated using the ELISA readout for each inhibitor concentration with standard curve-fitting software such as XLFit for the Excel spreadsheet program.
(In an ELISA, binding on a coated surface is turned into a signal by an enzyme label.)

Test [2] concerns Aβ40 in Human HEK293 cells stably transfected with human APP wt gene (APP695). Briefly: Cellular Aβ-lowering assay. The class given is cell-based. The settings on record: HEK293 cells expressing human APP695, Aβ40 in culture supernatant by ELISA after 18-20 hrs; read-out: Cellular assay Abeta40 IC50. As to the method: Cellular Aβ-lowering Assay:
Human HEK293 cells which are stably transfected with a vector expressing a cDNA of the human APP wt gene (APP695) were used to assess the potency of the compounds in a cellular assay. The cells were seeded in 96-well microtiter plates in cell culture medium (Iscove, plus 10% (v/v) fetal bovine serum, glutamine, penicillin/streptomycin) to about 80% confluence and the compounds were added at a 10× concentration in 1/10 volume of medium without FCS containing 8% DMSO (final concentration of DMSO was kept at 0.8% v/v). After 18-20 hrs incubation at 37° C. and 5% CO2 in a humidified incubator the culture supernatant was harvested for the determination of Aβ40 concentrations. 96 well ELISA plates (e.g., Nunc MaxiSorb) were coated with monoclonal antibody which specifically recognize the C-terminal end of Aβ40 (Brockhaus et al., NeuroReport 9, 1481-1486; 1998). After blocking of non-specific binding sites with e.g. 1% BSA and washing, the culture supernatants were added in suitable dilutions together with a horseradish peroxidase-coupled Aβ detection antibody (e.g., antibody 4G8, Senetek, Maryland Heights, Mo.) and incubated for 5 to 7 hrs. Subsequently the wells of the microtiter plate were washed extensively with Tris-buffered saline containing 0.05% Tween 20 and the assay was developed with tetramethylbenzidine/H2O2 in citric acid buffer. After stopping the reaction with one volume 1 NH2SO4 the reaction was measured in an ELISA reader at 450 nm wavelength. The concentrations of Aβ in the culture supernatants were calculated from a standard curve obtained with known amounts of pure Aβ peptide.

Counter-ions that a name gives are not always drawn.

The term IC50 denotes the concentration at which inhibition is half-maximal. As for `CSc1cnc(C(=O)Nc2ccc(F)c([C@@]3(C)N=C(N)COCC3(F)F)c2)cn1` [Example 5, (R)—N-(3-(3-Amino-6,6-difluoro-5-methyl-2,5,6,7-tetrahydro-1,4-oxazepin-5-yl)-4-fluorophenyl)-5-(methylthio)pyrazine-2-carboxamide formate], the 50% inhibitory concentration (IC50) is 103 nM in test [1] and 10 nM in test [2].
Take `COCC#Cc1ccc(C(=O)Nc2ccc(F)c([C@@]3(C)N=C(N)COCC3(F)F)c2)nc1` [Example 8, (R)—N-(3-(3-Amino-6,6-difluoro-5-methyl-2,5,6,7-tetrahydro-1,4-oxazepin-5-yl)-4-fluorophenyl)-5-(3-methoxyprop-1-ynyl)picolinamide formate]: the IC50 worked out at 837 nM in test [1] and 70 nM in test [2].
Taken in the same sequence, the figures for `C[C@]1(c2cc(NC(=O)c3ccc(C4CC4)cn3)ccc2F)N=C(N)COCC1(F)F` [Example 7, (R)—N-(3-(3-Amino-6,6-difluoro-5-methyl-2,5,6,7-tetrahydro-1,4-oxazepin-5-yl)-4-fluorophenyl)-5-cyclopropylpicolinamide formate] were 123 nM and 25 nM.
For `C[C@]1(c2cc(NC(=O)c3ccc(C#CC4CC4)cn3)ccc2F)N=C(N)COCC1(F)F` [Example 6, (R)—N-(3-(3-Amino-6,6-difluoro-5-methyl-2,5,6,7-tetrahydro-1,4-oxazepin-5-yl)-4-fluorophenyl)-5-(cyclopropylethynyl)picolinamide formate], in that order: 311 nM and 20 nM.
For `CC[C@]1(c2cc(NC(=O)c3ncoc3C3CC3)ccc2F)N=C(N)COCC1(F)F` [Example 4, (R)—N-(3-(3-Amino-5-ethyl-6,6-difluoro-2,5,6,7-tetrahydro-1,4-oxazepin-5-yl)-4-fluorophenyl)-5-cyclopropyloxazole-4-carboxamide], in that order: 662 nM and 2400 nM.
For the molecule `C[C@]1(c2cc(NC(=O)c3ncc(C(N)=O)cc3F)ccc2F)N=C(N)COCC1(F)F` [Example 1, (R)—N2-(3-(3-Amino-6,6-difluoro-5-methyl-2,5,6,7-tetrahydro-1,4-oxazepin-5-yl)-4-fluorophenyl)-3-fluoropyridine-2,5-dicarboxamide formate], the IC50 came out at 14600 nM in test [1] and 350 nM in test [2].
As to `C[C@]1(c2cc(NC(=O)c3ccc(-c4nccs4)cn3)ccc2F)N=C(N)COCC1(F)F` [Example 3, (R)—N-(3-(3-Amino-6,6-difluoro-5-methyl-2,5,6,7-tetrahydro-1,4-oxazepin-5-yl)-4-fluorophenyl)-5-(thiazol-2-yl)picolinamide formate], the IC50 in test [1] was determined as 5730 nM; in test [2], 10 nM.
Taken in the same sequence, the figures for `C[C@]1(c2cc(NCC3CC3)ccc2F)N=C(N)COC[C@@H]1F` [Example 9, (5R,6R)-5-(5-(Cyclopropylmethylamino)-2-fluorophenyl)-6-fluoro-5-methyl-2,5,6,7-tetrahydro-1,4-oxazepin-3-amine] were 22.6 nM and 28 nM.
